# Source: patent US9255100B2 (BAYER INTELLECTUAL PROPERTY GMBH, priority 2010, dated 2016)
# Biological target: T1, N-terminally GST-tagged human full length recombinant Mps-1 kinase (Homo sapiens, UniProt P33981)
# T1 construct: N-terminally GST-tagged human full length recombinant Mps-1 kinase; purchased Invitrogen, Karslruhe, Germany PV4071
# T1 sequence (P33981 1-857): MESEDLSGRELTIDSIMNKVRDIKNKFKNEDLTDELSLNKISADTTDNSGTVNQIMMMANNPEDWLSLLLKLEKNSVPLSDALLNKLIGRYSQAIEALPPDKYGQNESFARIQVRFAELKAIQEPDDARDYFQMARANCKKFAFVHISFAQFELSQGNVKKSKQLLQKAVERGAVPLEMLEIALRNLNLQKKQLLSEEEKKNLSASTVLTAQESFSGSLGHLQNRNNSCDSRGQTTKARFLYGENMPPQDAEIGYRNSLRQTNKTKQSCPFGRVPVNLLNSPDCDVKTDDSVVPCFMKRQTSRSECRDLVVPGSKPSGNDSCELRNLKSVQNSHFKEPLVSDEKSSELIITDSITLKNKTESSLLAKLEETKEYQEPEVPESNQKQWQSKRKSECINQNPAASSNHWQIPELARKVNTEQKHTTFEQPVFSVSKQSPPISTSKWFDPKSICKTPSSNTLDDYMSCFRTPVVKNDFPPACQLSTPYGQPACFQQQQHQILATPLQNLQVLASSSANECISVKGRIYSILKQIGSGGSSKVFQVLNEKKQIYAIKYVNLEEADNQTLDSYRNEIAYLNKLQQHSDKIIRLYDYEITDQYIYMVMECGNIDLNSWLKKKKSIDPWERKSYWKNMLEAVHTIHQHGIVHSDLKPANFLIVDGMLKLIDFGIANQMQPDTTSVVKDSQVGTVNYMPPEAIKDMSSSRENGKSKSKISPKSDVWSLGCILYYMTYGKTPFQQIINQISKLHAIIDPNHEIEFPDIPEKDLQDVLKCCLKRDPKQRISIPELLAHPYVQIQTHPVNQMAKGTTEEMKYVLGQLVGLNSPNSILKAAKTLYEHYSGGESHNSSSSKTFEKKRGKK
# Assay: Mps-1 kinase assay (TR-FRET)
# Assay type: biochemical
# Settings: Mps1 IC50 [nM], 10 μM ATP, 1 μM peptide substrate, 60 min at 22° C.
# Procedure: The human kinase Mps-1 phosphorylates a biotinylated substrate peptide. Detection of the phosphorylated product is achieved by time-resolved fluorescence resonance energy transfer (TR-FRET) from Europium-labelled anti-phospho-Serine/Threonine antibody as donor to streptavidin labelled with cross-linked allophycocyanin (SA-XLent) as acceptor. Compounds are tested for their inhibition of the kinase activity.
# N-terminally GST-tagged human full length recombinant Mps-1 kinase (purchased from Invitrogen, Karslruhe, Germany, cat. no PV4071) was used. As substrate for the kinase reaction a biotinylated peptide of the amino-acid sequence […] (C-terminus in amide form, purchased from Biosynthan GmbH, Berlin) was used.
# The concentration of Mps-1 in the assay was adjusted to the activity of the enzyme lot and was chosen appropriate to have the assay in the linear range, typical enzyme concentrations were in the range of about 1 nM (final conc. in the 5 μl assay volume).
# The resulting mixture was incubated 1 h at 22° C. to allow the binding of the phosphorylated peptide to the anti-phospho(Ser/Thr)-Europium-antibody. Subsequently the amount of phosphorylated substrate was evaluated by measurement of the resonance energy transfer from the Europium-labelled anti-phospho(Ser/Thr) antibody to the Streptavidin-XLent.
row,SMILES,IC50 [nM]
1,"Cc1cc(-c2cnc3c(NCC(C)(C)O)cc(Sc4ccc(C(F)(F)F)cc4)nn23)ccc1C(=O)NC1CC1 [Example 242, N-cyclopropyl-4-(8-[(2-hydroxy-2-methylpropyl)amino]-6-{[4-(trifluoromethyl)phenyl]sulfanyl}imidazo[1,2-b]pyridazin-3-yl)-2-methylbenzamide]",3.7
2,Cc1cc(-c2cnc3c(NCC(C)(C)O)cc(Sc4cccc(OC(C)C)c4)nn23)ccc1C(=O)NC1CC1 [Example 271],1
3,"Cc1cc(-c2cnc3c(NCCC(F)(F)F)cc(SCCN4CCOCC4)nn23)ccc1C(=O)NC1CC1 [Example 215, N-cyclopropyl-2-methyl-4-(6-{[2-(morpholin-4-yl)ethyl]sulfanyl}-8-[(3,3,3-trifluoropropyl)amino]imidazo[1,2-b]pyridazin-3-yl)benzamide]",1.7
4,"Cc1cc(-c2cnc3c(NCCO)cc(Oc4cccc(F)c4)nn23)ccc1C(=O)NC1CC1 [Example 277, N-cyclopropyl-4-{6-(3-fluorophenoxy)-8-[(2-hydroxyethyl)amino]imidazo[1,2-b]pyridazin-3-yl}-2-methylbenzamide]",< 0.1
5,"Cc1cc(-c2cnc3c(NCCC(F)(F)F)cc(-c4ccccc4CO)nn23)ccc1C(=O)NC1CC1 [Example 20, N-cyclopropyl-4-{6-[2-(hydroxymethyl)phenyl]-8-[(3,3,3-trifluoropropyl)amino]imidazo[1,2-b]pyridazin-3-yl}-2-methylbenzamide]",1.2
6,"Cc1cc(-c2cnc3c(NCCC(F)(F)F)cc(OCC(F)(F)C(F)(F)CO)nn23)ccc1C(=O)NC1CC1 [Example 278A, N-cyclopropyl-2-methyl-4-{6-(2,2,3,3-tetrafluoro-4-hydroxybutoxy)-8-[(3,3,3-trifluoropropyl)amino]imidazo[1,2-b]pyridazin-3-yl}benzamide]",0.4
7,"Cc1cc(-c2cnc3c(NCCC(F)(F)F)cc(SCCO)nn23)ccc1C(=O)NC1CC1 [Example 204, N-cyclopropyl-4-{6-[(2-hydroxyethyl)sulfanyl]-8-[(3,3,3-trifluoropropyl)amino]imidazo[1,2-b]pyridazin-3-yl}-2-methylbenzamide]",< 1
8,"Cc1cc(-c2cnc3c(NCC(C)(C)O)cc(Oc4cncc(C(N)=O)c4)nn23)ccc1C(=O)NC1CC1 [Example 411, 5-({3-[4-(cyclopropylcarbamoyl)-3-methylphenyl]-8-[(2-hydroxy-2-methylpropyl)amino]imidazo[1,2-b]pyridazin-6-yl}oxy)nicotinamide]",4.8
9,"COc1ccccc1Sc1cc(NCC(C)(C)O)c2ncc(-c3ccc(C(=O)NC4CC4)c(C)c3)n2n1 [Example 73B, N-cyclopropyl-4-{8-[(2-hydroxy-2-methylpropyl)amino]-6-[(2-methoxyphenyl)sulfanyl]imidazo[1,2-b]pyridazin-3-yl}-2-methylbenzamide]",3.8
10,"Cc1cc(-c2cnc3c(NCC4CCSCC4)cc(Sc4cccc(O)c4)nn23)ccc1C(=O)NC1CC1 [Example 287, N-cyclopropyl-4-{6-[(3-hydroxyphenyl)sulfanyl]-8-[(tetrahydro-2H-thiopyran-4-ylmethyl)amino]imidazo[1,2-b]pyridazin-3-yl}-2-methylbenzamide]",0.3
11,"Cc1cc(-c2cnc3c(NCC4CCOC4)cc(Oc4cccc(F)c4)nn23)ccc1C(=O)NC1CC1 (stereo not shown) [Example 328, N-cyclopropyl-4-{6-(3-fluorophenoxy)-8-[(tetra-hydrofuran-3-ylmethyl)amino]imidazo[1,2-b]pyridazin-3-yl}-2-methyl-benzamide]",0.3

# More lines, in order of falling IC50, values ahead:
row,IC50 [nM],SMILES
1,338,"CNC(=O)c1ccc(-c2cnc3c(NCc4cccs4)cc(Cl)nn23)cc1Cl [Example 186, 2-Chloro-4-{6-chloro-8-[(thiophen-2-ylmethyl)amino]imidazo[1,2-b]pyridazin-3-yl}-N-methylbenzamide]"
2,64.9,"Cc1cc(-c2cnc3c(NCC(C)(C)O)cc(-c4cn[nH]c4)nn23)ccc1C(=O)NC1CC1 [Example 162, N-cyclopropyl-4-{8-[(2-hydroxy-2-methylpropyl)amino]-6-(1H-pyrazol-4-yl)imidazo[1,2-b]pyridazin-3-yl}-2-methylbenzamide]"
3,14.8,"Cc1cc(-c2cnc3c(NCC(C)(C)O)cc(-c4c(C)noc4C)nn23)ccc1C(=O)NC1CC1 [Example 159, N-cyclopropyl-4-{6-(3,5-dimethyl-1,2-oxazol-4-yl)-8-[(2-hydroxy-2-methylpropyl)amino]imidazo[1,2-b]pyridazin-3-yl}-2-methylbenzamide]"
4,14.3,"CSc1cc(NCCS(=O)(=O)N2CCOCC2)c2ncc(-c3ccc(C(=O)NC4CC4)c(C)c3)n2n1 [Example 231, N-cyclopropyl-2-methyl-4-[6-(methylsulfanyl)-8-{[2-(morpholin-4-ylsulfonyl)ethyl]amino}imidazo[1,2-b]pyridazin-3-yl]benzamide]"
5,6.2,"Cc1cc(-c2cnc3c(NCC(C)(C)O)cc(-c4cccn4C)nn23)ccc1C(=O)NC1CC1 [Example 161, N-cyclopropyl-4-{8-[(2-hydroxy-2-methylpropyl)amino]-6-(1-methyl-1H-pyrrol-2-yl)imidazo[1,2-b]pyridazin-3-yl}-2-methylbenzamide]"
6,4,"CC(C)CNc1cc(-c2ccc(C(=O)NC3CC3)cc2)nn2c(-c3ccc(C(=O)NC4CC4)cc3)cnc12 [Example 116, 4,4′-{8-[(2-Methylpropyl)amino]imidazo[1,2-b]pyridazine-3,6-diyl} bis(N-cyclopropylbenzamide)]"
7,2.4,"CC(C)CNc1cc(-c2ccccc2)nn2c(-c3ccc4c(N)n[nH]c4c3)cnc12 [Example 11, 3-(3-Amino-1H-indazol-6-yl)-N-isobutyl-6-phenylimidazo[1,2-b]pyridazin-8-amine]"
8,0.4,"Cc1cc(-c2cnc3c(NCC(C)(C)O)cc(Oc4cccnc4)nn23)ccc1C(=O)NC1CC1 [Example 173, N-cyclopropyl-4-{8-[(2-hydroxy-2-methylpropyl)amino]-6-(pyridin-3-yloxy)imidazo[1,2-b]pyridazin-3-yl}-2-methylbenzamide]"
9,0.4,"COc1ccc(Nc2cc(NCC(C)(C)O)c3ncc(-c4ccc(C(=O)NC5CC5)c(C)c4)n3n2)cc1F [Example 353, N-cyclopropyl-4-{6-[(3-fluoro-4-methoxyphenyl)amino]-8-[(2-hydroxy-2-methylpropyl)amino]imidazo[1,2-b]pyridazin-3-yl}-2-methylbenzamide]"
10,0.2,"Cc1ccc(F)c(Oc2cc(NCC(C)(C)O)c3ncc(-c4ccc(C(=O)NC5CC5)c(C)c4)n3n2)c1 [Example 81, N-cyclopropyl-4-{6-(2-fluoro-5-methylphenoxy)-8-[(2-hydroxy-2-methylpropyl)amino]imidazo[1,2-b]pyridazin-3-yl}-2-methylbenzamide]"
11,0.2,"Cc1cc(-c2cnc3c(NCC4CCSCC4)cc(Sc4ccccc4O)nn23)ccc1C(=O)NC1CC1 [Example 289, N-cyclopropyl-4-{6-[(2-hydroxyphenyl)sulfanyl]-8-[(tetrahydro-2H-thiopyran-4-ylmethyl)amino]imidazo[1,2-b]pyridazin-3-yl}-2-methylbenzamide]"
12,0.2,"COc1ccccc1Oc1cc(NCCC(F)(F)F)c2ncc(-c3ccc(C(=O)NC4CC4)c(C)c3)n2n1 [Example 223, N-cyclopropyl-4-{6-(2-methoxyphenoxy)-8-[(3,3,3-trifluoropropyl)amino]imidazo[1,2-b]pyridazin-3-yl}-2-methylbenzamide]"
13,0.1,"Cc1cc(-c2cnc3c(NCCN(C)C)cc(Oc4cccc(F)c4)nn23)ccc1C(=O)NC1CC1 [Example 487, N-cyclopropyl-4-[8-{[2-(dimethylamino)ethyl]amino}-6-(3-fluorophenoxy)imidazo [1,2-b]pyridazin-3-yl]-2-methylbenzamide]"
14,0.1,"Cc1ccc(O)cc1Nc1cc(NCCC(F)(F)F)c2ncc(-c3ccc(C(=O)NC4CC4)c(C)c3)n2n1 [Example 443, N-cyclopropyl-4-{6-[(5-hydroxy-2-methylphenyl)amino]-8-[(3,3,3-trifluoropropyl)amino]imidazo[1,2-b]pyridazin-3-yl}-2-methylbenzamide]"
